This note sets out measurements from patent US20240002393A1, “SUBSTITUTED BENZO[f][l ,2,4JTRIAZOL0[4,3-a][l ,4J[…] GABA A GAMMA! POSITIVE ALLOSTERIC MODULATORS” (Hoffmann-La Roche Inc., priority 2020, published 2024).

Structures are written as SMILES. Where “and” joins values, the source holds several entries; their conditions need not be identical. Equal entries are not always repeated.

Assay [1] deals with human GABAA α1β2γ1 receptor (Homo sapiens (Human), UniProt P14867+Q8N1C3). Briefly: Radioligand binding assay, [3H]RO7239181 competition, γ1-containing GABAA subtypes. The conditions noted are these: HEK293F membranes, [3H]RO7239181 20-30 nM, mean of two determinations.
Assay [2] deals with human GABAA α2β2γ1 receptor (Homo sapiens (Human), UniProt P47869+Q8N1C3). The assay is described as above. Conditions: for Ki: HEK293F membranes, [3H]RO7239181 20-30 nM, mean of two determinations, read-out: Ki h-GABAA α2β2γ1; for γ2/γ1 Selectivity Ratio: Ki α1β3γ2 (nM)/Ki α2β2γ1 (nM); for LogSel: Log[Ki α1β3γ2 (nM)/Ki α2β2γ1 (nM)].
Another assay addresses h-GABA-A α2β2γ1 (Homo sapiens (Human), UniProt P47869+Q8N1C3). Briefly: Two-electrode voltage clamp electrophysiology in Xenopus oocytes expressing GABAA receptors. Format: cell-based. Conditions: for Efficacy (GABA)%: % modulation of GABA EC20 = 100*(Fold increase−1), compound at 30-fold Ki; for Fold increase h-GABA-A α2β2γ1 oocyte @ 30-fold Ki: GABA EC20, test compound at about 30-fold its Ki α2β2γ1, at least 3 oocytes. In short, it runs like this: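 Oocytes injected with α2β2γ1 subunit mRNA were recorded on days 3–5 by two-electrode voltage clamp at −80 mV, room temperature, pH 7.4 superfusion. Compound effect on GABA EC20 current computed point by point against a control GABA response; extremum expressed as % modulation of GABA EC20, n≥3 oocytes.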
Background: In two-electrode clamp one electrode senses voltage and the other passes current.

For orientation: Ki means a measure of affinity in units of concentration, obtained from inhibition or displacement. Consider `C[C@@H]1N=C(c2c(F)cccc2F)c2c(ccc(Cl)c2Br)-n2c(-c3ccn(C)n3)nnc21` [Example 81, (4S)-7-bromo-8-chloro-6-(2,6-difluorophenyl)-4-methyl-1-(1-methylpyrazol-3-yl)-4H-[1,2,4]triazolo[4,3-a][1,4]benzodiazepine], for which, in assay [1], affinity was put at a Ki of 101 nM. For the same compound, in assay [2], the Ki is 36.3 nM, the “γ2/γ1 Selectivity Ratio” value came out at 43.0 and the LogSel is recorded as 1.63. Further, on h-GABA-A α2β2γ1, the “Efficacy (GABA)%” value is 46% and the “Fold increase h-GABA-A α2β2γ1 oocyte @ 30-fold Ki” value is 1.46.

For `Cc1nnc2n1-c1ccc(Cl)c(Cl)c1C(c1c(F)cccc1F)=N[C@H]2C` [Example 82, (4S)-7,8-dichloro-6-(2,6-difluorophenyl)-1,4-dimethyl-4H-[1,2,4]triazolo[4,3-a][1,4]benzodiazepine], in assay [1], the affinity corresponds to a Ki of 12.8 nM. Moreover, in assay [2], the Ki was 10.6 nM, the “γ2/γ1 Selectivity Ratio” value came out at 24.6 and the LogSel was found to be 1.39. Besides, on h-GABA-A α2β2γ1, the “Efficacy (GABA)%” value is on record as 45% and the “Fold increase h-GABA-A α2β2γ1 oocyte @ 30-fold Ki” value is on record as 1.45.

In assay [1], `C[C@@H]1N=C(c2ncccc2F)c2c(ccc(Br)c2Cl)-n2c(C3CC3)nnc21` [Example 83, (4S)-8-bromo-7-chloro-1-cyclopropyl-6-(3-fluoro-2-pyridyl)-4-methyl-4H-[1,2,4]triazolo[4,3-a][1,4]benzodiazepine] registered a Ki of 128 nM. Besides, in assay [2], the inhibitory constant (Ki) is 23.2 nM, the “γ2/γ1 Selectivity Ratio” value is 36.8 and the LogSel came to 1.57. Besides, on h-GABA-A α2β2γ1, the “Efficacy (GABA)%” value came out at 102% and the “Fold increase h-GABA-A α2β2γ1 oocyte @ 30-fold Ki” value is listed as 2.02.

`C[C@@H]1N=C(c2ncccc2F)c2c(ccc(Br)c2Cl)-n2cnnc21` [Example 84, (4S)-8-bromo-7-chloro-6-(3-fluoro-2-pyridyl)-4-methyl-4H-[1,2,4]triazolo[4,3-a][1,4]benzodiazepine] came in with a Ki in assay [1] of 97.1 nM. In addition, in assay [2], the Ki amounted to 71.3 nM, the “γ2/γ1 Selectivity Ratio” value turned out to be 16.9 and the LogSel came to 1.23. On h-GABA-A α2β2γ1, the “Efficacy (GABA)%” value is reported as 203% and the “Fold increase h-GABA-A α2β2γ1 oocyte @ 30-fold Ki” value was 3.03.

Take `Cc1nnc2n1-c1ccc(Br)c(Cl)c1C(c1ncccc1F)=N[C@H]2C` [Example 85, (4S)-8-bromo-7-chloro-6-(3-fluoro-2-pyridyl)-1,4-dimethyl-4H-[1,2,4]triazolo[4,3-a][1,4]benzodiazepine]: affinity in assay [1] was put at a Ki of 63.6 nM. In assay [2], the Ki was found to be 53 nM, the “γ2/γ1 Selectivity Ratio” value stood at 13.3 and the LogSel is 1.12. On h-GABA-A α2β2γ1, the “Efficacy (GABA)%” value came to 114% and the “Fold increase h-GABA-A α2β2γ1 oocyte @ 30-fold Ki” value is 2.14.

For `Cc1ccc(-c2nnc3n2-c2ccc(Cl)c(Cl)c2C(c2c(F)cccc2F)=N[C@H]3C)nn1` [Example 86, (4S)-7,8-dichloro-6-(2,6-difluorophenyl)-4-methyl-1-(6-methylpyridazin-3-yl)-4H-[1,2,4]triazolo[4,3-a][1,4]benzodiazepine], in assay [1], the Ki came to 5.9 nM. Also, in assay [2], the Ki is 4.4 nM; the “γ2/γ1 Selectivity Ratio” value was 195.1 and 195; the LogSel is 2.29 and 2.3. At h-GABA-A α2β2γ1, the “Efficacy (GABA)%” value is recorded as 80% and the “Fold increase h-GABA-A α2β2γ1 oocyte @ 30-fold Ki” value worked out at 1.80.

Compound `Cc1cc(-c2nnc3n2-c2ccc(Cl)c(Cl)c2C(c2c(F)cccc2F)=N[C@H]3C)on1` [Example 87, 5-[(4S)-7,8-dichloro-6-(2,6-difluorophenyl)-4-methyl-4H-[1,2,4]triazolo[4,3-a][1,4]benzodiazepin-1-yl]-3-methyl-isoxazole] had a Ki in assay [1] of 8 nM. In addition, in assay [2], the Ki was found to be 7.5 nM, the “γ2/γ1 Selectivity Ratio” value is on record as 70.9 and the LogSel turned out to be 1.85. In addition, at h-GABA-A α2β2γ1, the “Efficacy (GABA)%” value is on record as 42% and the “Fold increase h-GABA-A α2β2γ1 oocyte @ 30-fold Ki” value is listed as 1.42.

Regarding `Cc1ccc(-c2nnc3n2-c2ccc(Cl)c(Br)c2C(c2c(F)cccc2F)=N[C@H]3C)nn1` [Example 88, (4S)-7-bromo-8-chloro-6-(2,6-difluorophenyl)-4-methyl-1-(6-methylpyridazin-3-yl)-4H-[1,2,4]triazolo[4,3-a][1,4]benzodiazepine], in assay [1], the affinity corresponds to a Ki of 34.5 nM. Besides, in assay [2], the Ki was 10.9 nM, the “γ2/γ1 Selectivity Ratio” value is 133.6 and the LogSel amounted to 2.13. For the same compound, on h-GABA-A α2β2γ1, the “Efficacy (GABA)%” value is 105% and the “Fold increase h-GABA-A α2β2γ1 oocyte @ 30-fold Ki” value is reported as 2.05.

`C[C@@H]1N=C(c2c(F)cccc2F)c2c(ccc(Cl)c2Br)-n2c1n[nH]c2=O` [Example 89, (4S)-7-bromo-8-chloro-6-(2,6-difluorophenyl)-4-methyl-2,4-dihydro-[1,2,4]triazolo[4,3-a][1,4]benzodiazepin-1-one] displayed a Ki in assay [1] of 106 nM. In assay [2], the Ki was determined as 77 nM, the “γ2/γ1 Selectivity Ratio” value was determined as 19.0 and the LogSel was determined as 1.28. Besides, on h-GABA-A α2β2γ1, the “Efficacy (GABA)%” value was found to be 88% and the “Fold increase h-GABA-A α2β2γ1 oocyte @ 30-fold Ki” value was 1.88.

Compound `Cc1nnc2n1-c1ccc(C(F)(F)F)c(Cl)c1C(c1c(F)cccc1F)=N[C@H]2C` [Example 92, (4S)-7-chloro-6-(2,6-difluorophenyl)-1,4-dimethyl-8-(trifluoromethyl)-4H-[1,2,4]triazolo[4,3-a][1,4]benzodiazepine] gave an inhibitory constant (Ki) in assay [1] of 48.3 nM. Moreover, in assay [2], the Ki stood at 21.9 nM, the “γ2/γ1 Selectivity Ratio” value turned out to be 102.0 and the LogSel was determined as 2.01. Further, on h-GABA-A α2β2γ1, the “Efficacy (GABA)%” value came to 92% and the “Fold increase h-GABA-A α2β2γ1 oocyte @ 30-fold Ki” value worked out at 1.92.

With `Cc1nnc2n1-c1ccc(C(C)(F)F)c(Cl)c1C(c1c(F)cccc1F)=N[C@H]2C` [Example 93, (4S)-7-chloro-8-(1,1-difluoroethyl)-6-(2,6-difluorophenyl)-1,4-dimethyl-4H-[1,2,4]triazolo[4,3-a][1,4]benzodiazepine], in assay [1], the affinity corresponds to a Ki of 85.1 nM. In assay [2], the Ki was 39.1 nM, the “γ2/γ1 Selectivity Ratio” value came out at 152.1 and the LogSel stood at 2.18. For the same compound, at h-GABA-A α2β2γ1, the “Efficacy (GABA)%” value is recorded as 169% and the “Fold increase h-GABA-A α2β2γ1 oocyte @ 30-fold Ki” value was found to be 2.69.

In the case of `Cc1cc(-c2nnc3n2-c2ccc(Cl)c(Cl)c2C(c2c(F)cccc2F)=N[C@H]3C)ncn1` [Example 94, (4S)-7,8-dichloro-6-(2,6-difluorophenyl)-4-methyl-1-(6-methylpyrimidin-4-yl)-4H-[1,2,4]triazolo[4,3-a][1,4]benzodiazepine], in assay [1], the Ki turned out to be 10.3 nM. For the same compound, in assay [2], the Ki came out at 8 nM, the “γ2/γ1 Selectivity Ratio” value was found to be 76.4 and the LogSel worked out at 1.88. Moreover, on h-GABA-A α2β2γ1, the “Efficacy (GABA)%” value worked out at 47% and the “Fold increase h-GABA-A α2β2γ1 oocyte @ 30-fold Ki” value is given as 1.47.

Consider `Cc1nccc(-c2nnc3n2-c2ccc(Cl)c(Cl)c2C(c2c(F)cccc2F)=N[C@H]3C)n1` [Example 95, (4S)-7,8-dichloro-6-(2,6-difluorophenyl)-4-methyl-1-(2-methylpyrimidin-4-yl)-4H-[1,2,4]triazolo[4,3-a][1,4]benzodiazepine], for which affinity in assay [1] was put at a Ki of 24.7 nM. Moreover, in assay [2], the Ki is 14.2 nM, the “γ2/γ1 Selectivity Ratio” value came to 32.7 and the LogSel is on record as 1.51. On h-GABA-A α2β2γ1, the “Efficacy (GABA)%” value worked out at 53% and the “Fold increase h-GABA-A α2β2γ1 oocyte @ 30-fold Ki” value is 1.53.

As to `Cc1cc(-c2nnc3n2-c2ccc(Cl)c(Cl)c2C(c2c(F)cccc2F)=N[C@H]3C)nc(C)n1` [Example 96, (4S)-7,8-dichloro-6-(2,6-difluorophenyl)-1-(2,6-dimethylpyrimidin-4-yl)-4-methyl-4H-[1,2,4]triazolo[4,3-a][1,4]benzodiazepine], the inhibitory constant (Ki) in assay [1] was 27.9 nM. Besides, in assay [2], the Ki came out at 13.9 nM, the “γ2/γ1 Selectivity Ratio” value came to 34.1 and the LogSel turned out to be 1.53. Besides, on h-GABA-A α2β2γ1, the “Efficacy (GABA)%” value was 52% and the “Fold increase h-GABA-A α2β2γ1 oocyte @ 30-fold Ki” value was 1.52.

Consider `Cc1ccc2c(c1Cl)C(c1c(F)cccc1F)=N[C@@H](C)c1nnc(C)n1-2` [Example 97, (4S)-7-chloro-6-(2,6-difluorophenyl)-1,4,8-trimethyl-4H-[1,2,4]triazolo[4,3-a][1,4]benzodiazepine], for which, in assay [1], the Ki was found to be 33.6 nM. Further, in assay [2], the Ki was determined as 27.1 nM, the “γ2/γ1 Selectivity Ratio” value is on record as 15.7 and the LogSel amounted to 1.19. Further, at h-GABA-A α2β2γ1, the “Efficacy (GABA)%” value came to 148% and the “Fold increase h-GABA-A α2β2γ1 oocyte @ 30-fold Ki” value was 2.48.

For the compound `CC[C@@H]1N=C(c2c(F)cccc2F)c2c(ccc(Br)c2Cl)-n2c(C)nnc21` [Example 98, (4S)-8-bromo-7-chloro-6-(2,6-difluorophenyl)-4-ethyl-1-methyl-4H-[1,2,4]triazolo[4,3-a][1,4]benzodiazepine], in assay [1], the affinity, expressed as Ki, was 57.6 nM. Further, in assay [2], the Ki was found to be 72 nM, the “γ2/γ1 Selectivity Ratio” value was found to be 20.3 and the LogSel is 1.31. On h-GABA-A α2β2γ1, the “Efficacy (GABA)%” value worked out at 107% and the “Fold increase h-GABA-A α2β2γ1 oocyte @ 30-fold Ki” value amounted to 2.07.

For `Cc1nnc2n1-c1ccc(C(F)F)c(Cl)c1C(c1c(F)cccc1F)=N[C@H]2C` [Example 99, (4S)-7-chloro-8-(difluoromethyl)-6-(2,6-difluorophenyl)-1,4-dimethyl-4H-[1,2,4]triazolo[4,3-a][1,4]benzodiazepine], the affinity in assay [1] corresponds to a Ki of 63.4 nM. In assay [2], the Ki was 55.4 nM, the “γ2/γ1 Selectivity Ratio” value came to 36.4 and the LogSel was determined as 1.56. At h-GABA-A α2β2γ1, the “Efficacy (GABA)%” value was determined as 135% and the “Fold increase h-GABA-A α2β2γ1 oocyte @ 30-fold Ki” value is on record as 2.35.
